Patent US20260248087A1, “GENERATING DOUBLED HAPLOID PLANTS” (Syngenta Crop Protection AG, priority 2023, published 2026)

How the values were obtained:
doubled haploid embryos = test: Potting rate and root growth, metcamifen post-treatment during germination; assay type: in vivo, maize; conditions: for Potting Rate Mean: post-treatment in germination media (2.5 g/L Gelzan)
Protocol: (§1) As used herein, the term “potted rate” or “potting rate” refers to the percent of germinated embryos successfully transferred to soil from total treated haploid embryos. The “potted rate” is used as an indication of plant health in monitoring the success of recovery and growth after treatment of haploids. As used herein, the term “transplant rate” refers to the survival of healthy plants after embryos were germinated and transferred to soil.
Doubled haploid embryos were treated with metcamifen during germination. Metcamifen was tested in the germination media at 0, 5, and 10 mg/L after colchicine treatment completion for 24 or 48 hours. The germination media comprised Gelzan at a concentration of 3.5 g/L. Four genotypes were tested representing two heterotic groups. […] The percent potting rate was not increased as result of these post-treatments. […] This led to a looping of the roots. A reduction in Gelzan concentration from 3.5 g/L to 2.5 g/L was tested (comparison data not presented here). The experiments were then carried out with 2.5 g/L Gelzan for metcamifen post-treatments while the control (0 metcamifen) contained 3.5 g/L Gelzan. Metcamifen was tested as 0, 5, 10 and 20 mg/L after colchicine treatment completion for 24 and 48 hours. The reduction in Gelzan of the metcamifen post-treatments led to a higher percent potting rate (see Table 5).

isolated embryos = test: Potted rate, transplant rate and seedling height, thiamethoxam co-treatment during colchicine doubling; assay type: in vivo, maize
Text: as §1
In addition to testing of safeners such as metcamifen, testing the effects of other compounds, such as thiamethoxam (TMX), were completed. Isolated embryos were co-treated with TMX during colchicine doubling in the doubling media. The co-treatments were allowed to incubate for 24 or 48 hours. Four genotypes representing two heterotic groups were tested with replication. The effect on potting rate from in vitro culture was evaluated.
Initial testing measured the effect of TMX at concentrations of 0, 150, or 750 mg/L for 24 or 48 hours. […] The strongest effect of TMX co-treatment seen with the 48-hour duration was at 750 mg/L TMX compared to the control.
Further testing was done and TMX was applied to isolated embryos at levels of 0, 750, 1500, 2000 mg/L during colchicine co-treatment. The co-treatments were incubated for 24 or 48 hours.
TMX was applied to isolated embryos at levels of 0, 2000, 4000, 8000 mg/L during colchicine co-treatment. The co-treatments were incubated for durations of 24 or 48 hours.
TMX was applied to isolated embryos at levels of 0, 2000, 4000, or 6000 mg/L during colchicine co-treatment. The co-treatments were incubated for durations of 24 or 48 hours. […] The highest percent transplanted rates were 86% and 83% for co-treatments 4000 mg/L at 24 hours and 6000 mg/L at 48 hours, respectively (see Table 8).

[1] = Table 6: co-treatment with colchicine, TMX 750 mg/L, 24 hours
[2] = Table 6: co-treatment with colchicine, TMX 750 mg/L, 48 hours
[3] = Table 6: co-treatment with colchicine, TMX 1500 mg/L, 24 hours
[4] = Table 6: co-treatment with colchicine, TMX 1500 mg/L, 48 hours
[5] = Table 6: co-treatment with colchicine, TMX 2000 mg/L, 24 hours
[6] = Table 6: co-treatment with colchicine, TMX 2000 mg/L, 48 hours
[7] = Table 7: co-treatment with colchicine, TMX 2000 mg/L, 24 hours
[8] = Table 7: co-treatment with colchicine, TMX 2000 mg/L, 48 hours
[9] = Table 7: co-treatment with colchicine, TMX 4000 mg/L, 24 hours
[10] = Table 7: co-treatment with colchicine, TMX 4000 mg/L, 48 hours
[11] = Table 7: co-treatment with colchicine, TMX 8000 mg/L, 24 hours
[12] = Table 7: co-treatment with colchicine, TMX 8000 mg/L, 48 hours
[13] = Table 8: co-treatment with colchicine, TMX 2000 mg/L, 24 hours
[14] = Table 8: co-treatment with colchicine, TMX 2000 mg/L, 48 hours
[15] = Table 8: co-treatment with colchicine, TMX 4000 mg/L, 24 hours
[16] = Table 8: co-treatment with colchicine, TMX 4000 mg/L, 48 hours
[17] = Table 8: co-treatment with colchicine, TMX 6000 mg/L, 24 hours
[18] = Table 8: co-treatment with colchicine, TMX 6000 mg/L, 48 hours

CNC(=O)Nc1ccc(S(=O)(=O)NC(=O)c2ccccc2OC)cc1 [Metcamifen, metcamifen]
percent potting rate (doubled haploid embryos; post-treatment 5 and 10 mg/L, 3.5 g/L Gelzan, 24 or 48 hours): not increased | Potting Rate Mean (doubled haploid embryos; 5 mg/L, Duration 24 hours): 69% | Potting Rate Mean (doubled haploid embryos; 5 mg/L, Duration 48 hours): 18% | Potting Rate Mean (doubled haploid embryos; 10 mg/L, Duration 24 hours): 62% | Potting Rate Mean (doubled haploid embryos; 10 mg/L, Duration 48 hours): 24% | Potting Rate Mean (doubled haploid embryos; 20 mg/L, Duration 24 hours): 51% | Potting Rate Mean (doubled haploid embryos; 20 mg/L, Duration 48 hours): 23%

CN1COCN(Cc2cnc(Cl)s2)/C1=N\[N+](=O)[O-] [TMX, thiamethoxam]
Potted Rate Mean (isolated embryos; [1]): 52% | Transplant Rate Mean (isolated embryos; [1]): 33% | Potted Rate Mean (isolated embryos; [2]): 12% | Transplant Rate Mean (isolated embryos; [2]): 9% | Potted Rate Mean (isolated embryos; [3]): 65% | Transplant Rate Mean (isolated embryos; [3]): 41% | Potted Rate Mean (isolated embryos; [4]): 18% | Transplant Rate Mean (isolated embryos; [4]): 12% | Potted Rate Mean (isolated embryos; [5]): 74% | Transplant Rate Mean (isolated embryos; [5]): 50% | Potted Rate Mean (isolated embryos; [6]): 32% | Transplant Rate Mean (isolated embryos; [6]): 21% | Potted Rate Mean (isolated embryos; [7]): 76% | Transplant Rate Mean (isolated embryos; [7]): 73% | Potted Rate Mean (isolated embryos; [8]): 22% | Transplant Rate Mean (isolated embryos; [8]): 15% | Potted Rate Mean (isolated embryos; [9]): 82% | Transplant Rate Mean (isolated embryos; [9]): 79% | Potted Rate Mean (isolated embryos; [10]): 67% | Transplant Rate Mean (isolated embryos; [10]): 61% | Potted Rate Mean (isolated embryos; [11]): 47% | Transplant Rate Mean (isolated embryos; [11]): 45% | Potted Rate Mean (isolated embryos; [12]): 20% | Transplant Rate Mean (isolated embryos; [12]): 16% | Potted Rate Mean (isolated embryos; [13]): 68% | Transplant Rate Mean (isolated embryos; [13]): 62% | Potted Rate Mean (isolated embryos; [14]): 27% | Transplant Rate Mean (isolated embryos; [14]): 26% | Potted Rate Mean (isolated embryos; [15]): 90% | Transplant Rate Mean (isolated embryos; [15]): 86% | Potted Rate Mean (isolated embryos; [16]): 63% | Transplant Rate Mean (isolated embryos; [16]): 56% | Potted Rate Mean (isolated embryos; [17]): 86% | Transplant Rate Mean (isolated embryos; [17]): 74% | Potted Rate Mean (isolated embryos; [18]): 89% | Transplant Rate Mean (isolated embryos; [18]): 83% | Seedling height (overall plant height) (isolated embryos; initial testing, TMX 150 or 750 mg/L, 24-hour and 48-hour): taller | potting rate (isolated embryos; initial testing, TMX 150 or 750 mg/L, 24-hour co-treatment): ≥ 80%
